SMILES strings stand for the structures. Read-outs that look alike come from different tables or passages of the source. Bounds are passed on as bounds.

The text below walks through data of patent US20250221987A1, “PIPERAZINO RING-CONTAINING DERIVATIVE, PHARMACEUTICALLY ACCEPTABLE SALT THEREOF, PREPARATION METHOD THEREFOR, AND APPLICATION THEREOF” (ACERAND THERAPEUTICS (HONG KONG) LIMITED, priority 2022, published 2025).

For one assay, the system named is MDA-MB-436 cells. Kind of assay: Proliferation activity assay of MDA-MB-436 cells (CellTiter-Glo). It is filed as cell-based. Conditions: 4000 cells seeded, 6 days incubation, read-out: MDA-MB-436 proliferation inhibition IC50. On the procedure:
Complete culture medium was prepared and mixed thoroughly. The cells were resuscitated and cultured for about two passages to select a cell line in good growth condition. The cell culture flask was removed from the incubator. Cell adherence: the culture medium was aspirated, then the cells were washed once with trypsin to discard the waste liquid, and 3 mL of fresh trypsin was added to the culture flask for digestion. When the cells were loose to be detached from the wall of the flask, 8 mL of complete culture medium was added thereto to stop trypsin digestion and mixed gently. The cell suspension was transferred to a centrifuge tube with a pipette and centrifuged at 1000 rpm for 5 minutes. The supernatant was discarded. An appropriate volume of culture medium was added to the centrifuge tube and pipetted gently to resuspend the cells evenly. The cells were counted using a Vi-Cell XR cell counter. The cell suspension was adjusted to an appropriate concentration. The cell suspension was added to a 96-well plate at 100 µL/well. The details such as cell name, seeding density, and date were labelled, and the culture plate was placed in a CO2 incubator overnight.
The compound to be tested was prepared into a 10 mM stock solution, which was aliquoted and stored in a −20° C. freezer. The compound solution was added to a 96-well plate using HPD300. The plate was incubated in a CO2 incubator for a total of 6 days.
CellTiter-Glo buffer was melted at room temperature. The lyophilized CellTiter-Glo substrate was equilibrated to room temperature. CellTiter-Glo buffer was added to the CellTiter Glo substrate and mixed thoroughly. A cell plate was taken out and equilibrated to room temperature. 100 μL of mixed CellTiter Glo reagent was added to each well, and the mixture was shaken in the dark for 10 minutes, followed by incubation for 20 minutes. The culture plate was placed into an Enspire reading plate, and the luminescence reading results were recorded. […] A pharmacodynamic inhibition rate curve was plotted by using XLFit, and the IC50 value was calculated. The 4-parameter model [fit=(A+((B−A)/(1+((C/x)^D)))] was used.

A further assay addresses PARP1 (Homo sapiens (Human), UniProt P09874). Kind of assay: PARP1 enzymatic activity assay. It is filed as biochemical. Conditions: for PARP1/PARP2 inhibition Selectivity multiple N (N = IC50 (PARP2)/IC50 (PARP1)): ratio IC50 (PARP2)/IC50 (PARP1); for IC50: final PARP1 0.02 nM, DNA 0.8 nM, NAD+ 3.5 μM, 60 minutes. The procedure:
2) After the coating was completed, the coating buffer was discarded.
After washing, the blocking buffer was discarded.
4) 1000× compound was prepared. 1 μL of compound was transferred to a 96-well plate containing 199 μL of reaction buffer (50 mM Tris-HCl (pH 7.5), 0.005% Tween-20, 0.01% BSA) and mixed well.
5) 25/10×PARP1-DNA solution was prepared with reaction buffer.
6) 25/10×NAD+ solution was prepared with reaction buffer.
8) Primary antibody was 2000-fold diluted with the blocking buffer. 20 μL of primary antibody was added to the reaction plate, which was incubated at room temperature for 1.5 hours.
9) The primary antibody was discarded.
10) Secondary antibody was 2000-fold diluted with the blocking buffer.
11) The secondary antibody was discarded.
The chemiluminescence value RLU was read with Envision.

A further assay addresses PARP2 (Homo sapiens (Human), UniProt Q9UGN5). In words: PARP2 enzymatic activity assay. Conditions: Biotin-NAD+ 2 μM, 60 minutes. It is filed as biochemical.
Setting [1] is: Homo sapiens, MDA-MB-436, 144 h.

PARP2, sequence (Q9UGN5 whole entry): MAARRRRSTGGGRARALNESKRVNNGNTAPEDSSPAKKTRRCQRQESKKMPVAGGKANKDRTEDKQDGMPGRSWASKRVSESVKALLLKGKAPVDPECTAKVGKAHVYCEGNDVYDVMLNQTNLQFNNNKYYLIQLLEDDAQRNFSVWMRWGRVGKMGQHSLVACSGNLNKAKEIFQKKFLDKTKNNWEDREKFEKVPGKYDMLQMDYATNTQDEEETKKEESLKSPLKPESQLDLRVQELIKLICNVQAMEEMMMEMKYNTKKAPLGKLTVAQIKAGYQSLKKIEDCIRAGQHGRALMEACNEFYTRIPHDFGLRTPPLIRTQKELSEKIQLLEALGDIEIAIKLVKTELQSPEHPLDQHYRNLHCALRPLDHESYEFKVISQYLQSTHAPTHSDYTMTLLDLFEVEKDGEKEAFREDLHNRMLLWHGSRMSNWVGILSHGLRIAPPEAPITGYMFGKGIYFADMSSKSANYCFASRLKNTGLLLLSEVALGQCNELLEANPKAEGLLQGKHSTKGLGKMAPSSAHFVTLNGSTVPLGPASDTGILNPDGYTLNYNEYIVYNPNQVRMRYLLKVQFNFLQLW
PARP1, sequence (P09874 whole entry): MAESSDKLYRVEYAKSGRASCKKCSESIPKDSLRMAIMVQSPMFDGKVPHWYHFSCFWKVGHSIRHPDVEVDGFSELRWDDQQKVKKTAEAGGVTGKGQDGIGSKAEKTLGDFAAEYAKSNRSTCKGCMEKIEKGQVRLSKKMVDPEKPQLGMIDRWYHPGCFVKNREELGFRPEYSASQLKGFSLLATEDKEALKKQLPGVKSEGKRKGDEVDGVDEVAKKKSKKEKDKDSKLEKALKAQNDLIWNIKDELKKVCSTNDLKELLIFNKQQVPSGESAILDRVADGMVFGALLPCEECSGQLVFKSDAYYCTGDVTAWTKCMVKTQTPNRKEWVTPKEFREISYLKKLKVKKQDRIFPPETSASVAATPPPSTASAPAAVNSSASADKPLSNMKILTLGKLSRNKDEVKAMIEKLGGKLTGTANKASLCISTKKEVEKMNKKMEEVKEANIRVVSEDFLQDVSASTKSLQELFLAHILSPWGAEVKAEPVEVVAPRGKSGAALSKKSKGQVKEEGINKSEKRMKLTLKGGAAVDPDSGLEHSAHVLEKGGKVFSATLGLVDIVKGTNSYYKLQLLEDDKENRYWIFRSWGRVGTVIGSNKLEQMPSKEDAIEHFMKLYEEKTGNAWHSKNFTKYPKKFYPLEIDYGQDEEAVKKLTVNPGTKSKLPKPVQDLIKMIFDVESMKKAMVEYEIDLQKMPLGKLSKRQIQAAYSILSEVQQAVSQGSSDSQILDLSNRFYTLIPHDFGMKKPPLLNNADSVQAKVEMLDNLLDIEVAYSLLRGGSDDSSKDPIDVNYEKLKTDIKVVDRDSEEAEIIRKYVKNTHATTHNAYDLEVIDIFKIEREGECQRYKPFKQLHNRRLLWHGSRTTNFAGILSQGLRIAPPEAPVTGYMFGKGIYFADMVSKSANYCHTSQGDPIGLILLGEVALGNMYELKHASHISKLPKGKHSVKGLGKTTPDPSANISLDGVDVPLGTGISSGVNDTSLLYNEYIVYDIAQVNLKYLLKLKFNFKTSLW

For `CNC(=O)c1ccc(N2CCN(Cc3cnc4c5c(c(=O)[nH]c4c3)CCC5)[C@@H]3C[C@@H]32)cn1` (relative stereo) [Example 7, cis-N-methyl-5-(5-((6-oxo-6,7,8,9-tetrahydro-5H-cyclopenta[c][1,5]naphthyridin-3-yl)methyl)-2,5-diazabicyclo[4.1.0]heptan-2-yl)picolinamide], the IC50 in the assay on MDA-MB-436 cells (setting [1]) was determined as 13 nM.
Same read-out and setting: in the case of `CCc1cc2ncc(CN3CCN(c4ccc(C(=O)NC5CC5)nc4)[C@H]4CC[C@H]43)cc2[nH]c1=O` (relative stereo) [Example 46, cis-N-cyclopropyl-5-(5-((7-ethyl-6-oxo-5,6-dihydro-1,5-naphthyridin-3-yl)methyl)-2,5-diazabicyclo[4.2.0]octan-2-yl)pyridine-2-carboxamide] it was 5 nM.
For `CCc1cc2ncc(CN3CCN(c4ccc(C(=O)NC)nc4)C4CCC43)cc2[nH]c1=O` (stereo not shown) [Example 2, 5-(5-((7-ethyl-6-carbonyl-5,6-dihydro-1,5-naphthyridin-3-yl)methyl)-2,5-diazabicyclo[4.2.0]octan-2-yl)-N-methylpyridine-2-carboxamide], at PARP1, the “PARP1/PARP2 inhibition Selectivity multiple N (N = IC50 (PARP2)/IC50 (PARP1))” value is 16. Also, the IC50 in the assay on MDA-MB-436 cells (setting [1]) was 5 nM.
Take `CCc1cc2ncc(CN3CCN(c4ccc(C(=O)NC)nc4)[C@@H]4CC[C@H]43)cc2[nH]c1=O` [Example 2-3, 5-((1R,6R)-5-((7-ethyl-6-carbonyl-5,6-dihydro-1,5-naphthyridin-3-yl)methyl)-2,5-diazabicyclo[4.2.0]octan-2-yl)-N-methylpyridine-2-carboxamide]: the “PARP1/PARP2 inhibition Selectivity multiple N (N = IC50 (PARP2)/IC50 (PARP1))” value on PARP1 worked out at 48.
For the compound `CCc1cc2ncc(CN3CCN(c4ccc(C(=O)NC)nc4)[C@H]4CC[C@@H]43)cc2[nH]c1=O` [Example 2-4, 5-((1S,6S)-5-((7-ethyl-6-carbonyl-5,6-dihydro-1,5-naphthyridin-3-yl)methyl)-2,5-diazabicyclo[4.2.0]octan-2-yl)-N-methylpyridine-2-carboxamide], the “PARP1/PARP2 inhibition Selectivity multiple N (N = IC50 (PARP2)/IC50 (PARP1))” value at PARP1 is listed as 40. Moreover, the IC50 with MDA-MB-436 cells (setting [1]) was 2 nM.
As to `CCc1cc2nnc(CN3CCN(c4ccc(C(=O)NC)nc4)[C@@H]4C[C@@H]43)cc2[nH]c1=O` [Example 5-1], at PARP1, the IC50 worked out at 0.9 nM and the “PARP1/PARP2 inhibition Selectivity multiple N (N = IC50 (PARP2)/IC50 (PARP1))” value amounted to 83. Further, the IC50 at PARP2 (final PARP2 […]) was 75 nM.
For `CCc1cc2nnc(CN3CCN(c4ccc(C(=O)NC)nc4)C4C[C@H]43)cc2[nH]c1=O` (stereo partly shown) [Example 5-2], at PARP1, the IC50 amounted to 0.5 nM and the “PARP1/PARP2 inhibition Selectivity multiple N (N = IC50 (PARP2)/IC50 (PARP1))” value is 64. Further, the IC50 on PARP2 (final PARP2 […]) is 32 nM.
`CCc1cc2nnc(CN3CCN(c4ccc(C(=O)NC)nc4)C4C[C@H]43)cc2[nH]c1=O` (stereo partly shown) [Example 5]: on PARP1, the IC50 stood at 0.5 nM and the “PARP1/PARP2 inhibition Selectivity multiple N (N = IC50 (PARP2)/IC50 (PARP1))” value is reported as 62. Also, at PARP2 (final PARP2 […]), the IC50 is 31 nM.
For `CCc1cc2nnc(CN3CCN(c4ccc(C(=O)NC)nc4)[C@@H]4CC[C@@H]43)cc2[nH]c1=O` [Example 10-1], in that order: 0.8 nM, 45 and 36 nM.
In the case of `CCc1cc2nnc(CN3CCN(c4ccc(C(=O)NC)nc4)C4CC[C@@H]43)cc2[nH]c1=O` (stereo partly shown) [Example 10-2], the IC50 on PARP1 was found to be 0.9 nM; against PARP2 (final PARP2 […]), 77 nM; with MDA-MB-436 cells, 5 nM. The “PARP1/PARP2 inhibition Selectivity multiple N (N = IC50 (PARP2)/IC50 (PARP1))” value at PARP1 was determined as 85.
For `CCc1cc2nnc(CN3CCN(c4ccc(C(=O)NC)nc4)C4CC[C@H]43)cc2[nH]c1=O` (stereo partly shown) [Example 10], the IC50 against PARP1 is 1 nM; at PARP2 (final PARP2 […]), 105 nM; with MDA-MB-436 cells (setting [1]), 9 nM. Moreover, at PARP1, the “PARP1/PARP2 inhibition Selectivity multiple N (N = IC50 (PARP2)/IC50 (PARP1))” value is on record as 105.
In the case of `CCc1nc2ncc(CN3CCN(c4ccc(C(=O)NC)nc4)[C@H]4CC[C@H]43)cc2[nH]c1=O` [Example 11-1, 5-((1S,6R)-5-((3-ethyl-2-oxo-1,2-dihydropyrido[2,3-b]pyrazin-7-yl)methyl)-2,5-diazabicyclo[4.2.0]octan-2-yl)-N-methylpicolinamide], on PARP1, the IC50 was 3.9 nM and the “PARP1/PARP2 inhibition Selectivity multiple N (N = IC50 (PARP2)/IC50 (PARP1))” value is 69. The compound further registered an IC50 against PARP2 (final PARP2 […]) of 272 nM.
Consider `CCc1nc2ncc(CN3CCN(c4ccc(C(=O)NC)nc4)[C@@H]4CC[C@@H]43)cc2[nH]c1=O` [Example 11-2, 5-((1R,6S)-5-((3-ethyl-2-oxo-1,2-dihydropyrido[2,3-b]pyrazin-7-yl)methyl)-2,5-diazabicyclo[4.2.0]octan-2-yl)-N-methylpicolinamide], for which the IC50 against PARP1 worked out at 1.5 nM; on PARP2 (final PARP2 1.5 nM) it was 202 nM; with MDA-MB-436 cells (setting [1]) it was 9 nM. For the same compound, at PARP1, the “PARP1/PARP2 inhibition Selectivity multiple N (N = IC50 (PARP2)/IC50 (PARP1))” value worked out at 135.
Regarding `CNC(=O)c1ccc(N2CCN(Cc3cnc4c5c(c(=O)[nH]c4c3)CCC5)[C@@H]3CC[C@@H]32)cn1` [Example 12-1, N-methyl-5-[(1S,6R)-5-((6-oxo-5H,7H,8H,9H-cyclopenta[c][1,5]naphthyridin-3-yl)methyl)-2,5-diazabicyclo[4.2.0]octan-2-yl]pyridine-2-carboxamide], the IC50 on PARP1 is 0.3 nM; against PARP2 (final PARP2 1.5 nM) it was 18 nM; in the assay with MDA-MB-436 cells (setting [1]), 15 nM. At PARP1, the “PARP1/PARP2 inhibition Selectivity multiple N (N = IC50 (PARP2)/IC50 (PARP1))” value is given as 60.
As to `CNC(=O)c1ccc(N2CCN(Cc3cnc4cc(C5CC5)c(=O)[nH]c4c3)[C@@H]3CC[C@@H]32)cn1` [Example 16-2], in the assay with MDA-MB-436 cells (setting [1]), the IC50 was determined as 6 nM.
Same read-out and setting: for `CNC(=O)c1ccc(N2CCN(Cc3cnc4cc(C(F)(F)F)c(=O)[nH]c4c3)[C@@H]3CC[C@@H]32)cn1` [Example 30-1, N-methyl-5-((1S,6R)-5-((6-oxo-7-(trifluoromethyl)-5,6-dihydro-1,5-naphthyridin-3-yl)methyl)-2,5-diazabicyclo[4.2.0]octan-2-yl)picolinamide] the value was 2 nM.
Regarding `CNC(=O)c1ccc(N2CCN(Cc3cnc4cc(OC)c(=O)[nH]c4c3)[C@H]3CC[C@H]32)cn1` [Example 33-1], the “PARP1/PARP2 inhibition Selectivity multiple N (N = IC50 (PARP2)/IC50 (PARP1))” value at PARP1 is >45.
Take `CNC(=O)c1ccc(N2CCN(Cc3cnc4cc(OC)c(=O)[nH]c4c3)[C@@H]3CCC32)cn1` (stereo partly shown) [Example 33-2]: on PARP1, the IC50 was 2.3 nM and the “PARP1/PARP2 inhibition Selectivity multiple N (N = IC50 (PARP2)/IC50 (PARP1))” value is recorded as >130. Also, on PARP2 (final PARP2 […]), the IC50 was > 300 nM.
Regarding `CCc1cc2ncc(CN3CCN(c4ccc(C(=O)NC5CC5)nc4)[C@H]4CC[C@H]43)cc2[nH]c1=O` [Example 46-1, N-cyclopropyl-5-((1S,6R)-5-((7-ethyl-6-oxo-5,6-dihydro-1,5-naphthyridin-3-yl)methyl)-2,5-diazabicyclo[4.2.0]octan-2-yl)picolinamide], the IC50 in the assay on MDA-MB-436 cells (setting [1]) was found to be 8 nM.
On to `CCc1cc2ncc(CN3CCN(c4ccc(C(=O)NC5CC5)nc4)[C@@H]4CC[C@@H]43)cc2[nH]c1=O` [Example 46-2, N-cyclopropyl-5-((1R,6S)-5-((7-ethyl-6-oxo-5,6-dihydro-1,5-naphthyridin-3-yl)methyl)-2,5-diazabicyclo[4.2.0]octan-2-yl)picolinamide], for which the IC50 in the assay with MDA-MB-436 cells (setting [1]) came out at 2 nM.
As for `CCc1cc2ncc(CN3CCN(c4ccc(C(=O)NC5CC5)nc4F)[C@H]4CC[C@H]43)cc2[nH]c1=O` [Example 47-2, N-cyclopropyl-5-((1S,6R)-5-((7-ethyl-6-oxo-5,6-dihydro-1,5-naphthyridin-3-yl)methyl)-2,5-diazabicyclo[4.2.0]octan-2-yl)-6-fluoropicolinamide], in the assay on MDA-MB-436 cells (setting [1]), the IC50 was 3 nM.
As for `CCc1cc2ncc(CN3CCN(c4ccc(C(=O)NC5CCC5)nc4)[C@@H]4CC[C@@H]43)cc2[nH]c1=O` [Example 48-1, N-cyclobutyl-5-((1R,6S)-5-((7-ethyl-6-oxo-5,6-dihydro-1,5-naphthyridin-3-yl)methyl)-2,5-diazabicyclo[4.2.0]octan-2-yl)picolinamide], in the assay with MDA-MB-436 cells (setting [1]), the IC50 was 12 nM.
On the same count and under the same terms, in the case of `CCc1cc2ncc(CN3CCN(c4ccc(C(=O)NC5CCC5)nc4)[C@H]4CC[C@H]43)cc2[nH]c1=O` [Example 48-2, N-cyclobutyl-5-((1S,6R)-5-((7-ethyl-6-oxo-5,6-dihydro-1,5-naphthyridin-3-yl)methyl)-2,5-diazabicyclo[4.2.0]octan-2-yl)picolinamide] it was 2 nM.
